Legend:
Format in all cases: cell-based
canine PBMCs = test: IL-1β secretion by canine PBMCs (ELISA); details: two days in culture, R848 1 μg/mL, 22:0 LYSO PC 82.5 μM, concentration per mL and fold change per donor relative to R848 alone
Experimental: (§1) Isolation of PBMCs from Human and Canine Whole Blood. PBMCs were isolated from whole blood using density gradient centrifugation with Ficoll-Paque PLUS (Cytivia). Whole blood was diluted 1:1 with PBS, layered on top of Ficoll-Paque PLUS and centrifuged at 1000×g for 30 minutes at room temperature. PBMCs were collected, washed twice in PBS, and incubated with Ack lysis buffer (Lonza) to remove any remaining red blood cells.
(§2) Cell Culture and Stimulation. Immediately following isolation, PBMCs were plated in RPMI medium containing 10% FBS, 50 units/mL penicillin, […] streptomycin, 2 mM L-glutamine, 1 mM sodium pyruvate, and […] beta-mercaptoethanol (R10 media). […]
(§3) Endpoint Analyses. […] Half of the media volume in the wells was collected for cytokine quantification by Enzyme-Linked Immunosorbent Assay (ELISA) or Lumit™ Bioluminescent assay, while the remaining media and cells were used to quantify cell viability by assessing metabolic activity.
(§4) Quantification of Cytokine Secretion. IL-1β secretion from human PBMCs was assessed using one of the following kits: ELISA MAX Deluxe Set Human IL-1β kit (Biolegend), Invitrogen Human IL-1β kit, or the Lumit™ Human IL-1β Immunoassay (Promega). IFNγ secretion from human PBMCs was assessed using the ELISA MAX Deluxe Set Human IFNγ (Biolegend) and TNFα secretion from human PBMCs was assessed using the Human TNFα Uncoated ELISA kit (Invitrogen). […]

human PBMCs [1] = test: IFNγ secretion by human PBMCs (ELISA); details: two days post-hyperactivation
Experimental: as §1, §2, §3, §4

human PBMCs [2] = test: IL-1β secretion by human PBMCs (ELISA or Lumit); details: two days in culture, R848 1 μg/mL
Experimental: as §1, §2, §3, §4

Row | Molecule | IL-1β secretion (canine PBMCs) | fold change per donor in IFNγ secretion relative to R848 alone (human PBMCs [1]) | IL-1β secretion (human PBMCs [2])
1 | Nc1nc2c(ncn2[C@@H]2O[C@@H]3COP(=O)(O)O[C@H]4[C@@H](O)[C@H](n5cnc6c(N)ncnc65)O[C@@H]4COP(=O)(O)O[C@@H]2[C@@H]3O)c(=O)[nH]1 [2′3′cGAMP, 2′3′ cGAMP, reference compound] | neither GM-CSF nor 2′3′cGAMP induced significant IL-1β secretion | neither GM-CSF nor 2′3′cGAMP elicited a substantial fold change | 
2 | GM-CSF: human GM-CSF (Peprotech), innate agonist added at 10 ng/mL | neither GM-CSF nor 2′3′cGAMP induced significant IL-1β secretion | neither GM-CSF nor 2′3′cGAMP elicited a substantial fold change | did not induce levels of IL-1β secretion from human PBMCs significantly above background levels
